Data taken from patent US20260315494A1, “TREATMENT OF BREAST TISSUE” (Havah Therapeutics Pty Ltd, priority 2023, published 2026).
Where “and” joins values, the source holds several entries; their conditions need not be identical. Equal values may be shown once.

Experiment: Single-dose pharmacokinetics of T+Ai pellet implant (80 mg testosterone + 4 mg anastrozole, subcutaneous)
Conditions: for concentration at 24 h: 24 h post-dose
Procedure: The premenopausal women were aged between 35 and 55 years of age with a BMI range of 20-30 kg/m^2. […] The implant was intended to be left in situ and was expected to be almost completely absorbed within three months following insertion.
A total of 11 subjects were dosed with the implant and included in the safety analysis set. All 11 subjects were included in the pharmacokinetics (PK) analysis set.
(NB: the sample collection time point at 6 hours post-dose was added for the third and subsequent subject and so serum measurements were not determined for the first two subjects as noted below).
Patients seeking treatment with the T+Ai for reduction in high MBD were eligible for the study. Following successful screening, subjects attended the Wellend Health Clinic for dosing. The trial was designed to dose all subjects while in the luteal phase of their menstrual cycle to avoid the highly changing hormonal environment of the follicular phase. Following insertion of the implant, PK blood sampling was carried out for a duration of three months (see below). Briefly, samples were taken repeatedly on the day of dosing, daily during the first week, weekly for the next four weeks and every second week during the last eight weeks of a total sampling period of three months.
The sampling schedule was revised with the addition of one blood sample (at 6 hours post-dose as discussed above), and no adjustment of the timing of existing time points was made. The duration of sampling was not extended.
Following dosing on Day 1, blood samples were taken pre-dose (within one hour of dosing) and at 1, 2, 4, 6, 8 and 12 hours. Participants returned for a blood sample to be taken at 9 am in the morning on Days 2, 3, 4, 5, 8, 15, 22, 29, 43, 57, 71 and 85.

Compound: CC(C)(C#N)c1cc(Cn2cncn2)cc(C(C)(C)C#N)c1 [Anastrozole, 2,2′-[5-(1H-1,2,4-triazol-1-ylmethyl)-1,3-phenylene]bis(2-methylpropanenitrile)]
- anastrozole level versus conventional full oral dosing (compared with conventional full oral dosing): 5 times lower
- Tmax (human, in vivo, sc, 4 mg): 24 to 72 h
- concentration at 1008 h (human, in vivo, sc, 4 mg, Measured serum anastrozole, GeoMean, geometric mean (BLQ excluded), 1008 h post-dose): 0.49 ng/mL
- concentration at 1344 h (human, in vivo, sc, 4 mg, Measured serum anastrozole, GeoMean, geometric mean (BLQ excluded), 1344 h post-dose): 0.3 ng/mL
- concentration at 1680 h (human, in vivo, sc, 4 mg, Measured serum anastrozole, GeoMean, geometric mean (BLQ excluded), 1680 h post-dose): 0.26 ng/mL
- concentration at 2016 h (human, in vivo, sc, 4 mg, Measured serum anastrozole, GeoMean, geometric mean (BLQ excluded), 2016 h post-dose): 0.21 ng/mL
- concentration at 1 h (human, in vivo, sc, 4 mg, Measured serum anastrozole, GeoMean, geometric mean, 1 h post-dose): 0.35 ng/mL
- concentration at 2 h (human, in vivo, sc, 4 mg, Measured serum anastrozole, GeoMean, geometric mean, 2 h post-dose): 0.61 ng/mL
- concentration at 4 h (human, in vivo, sc, 4 mg, Measured serum anastrozole, GeoMean, geometric mean, 4 h post-dose): 1.15 ng/mL
- concentration at 6 h (human, in vivo, sc, 4 mg, Measured serum anastrozole, GeoMean, geometric mean, 6 h post-dose): 2.31 ng/mL
- concentration at 8 h (human, in vivo, sc, 4 mg, Measured serum anastrozole, GeoMean, geometric mean, 8 h post-dose): 3.23 ng/mL
- concentration at 12 h (human, in vivo, sc, 4 mg, Measured serum anastrozole, GeoMean, geometric mean, 12 h post-dose): 3.97 ng/mL
- concentration at 24 h (human, in vivo, sc, 4 mg, Measured serum anastrozole, GeoMean, geometric mean): 4.77 ng/mL
- concentration at 48 h (human, in vivo, sc, 4 mg, Measured serum anastrozole, GeoMean, geometric mean, 48 h post-dose): 4.98 ng/mL
- concentration at 72 h (human, in vivo, sc, 4 mg, Measured serum anastrozole, GeoMean, geometric mean, 72 h post-dose): 4.92 ng/mL
- concentration at 96 h (human, in vivo, sc, 4 mg, Measured serum anastrozole, GeoMean, geometric mean, 96 h post-dose): 4.58 ng/mL
- concentration at 168 h (human, in vivo, sc, 4 mg, Measured serum anastrozole, GeoMean, geometric mean, 168 h post-dose): 3.5 ng/mL
- concentration at 504 h (human, in vivo, sc, 4 mg, Measured serum anastrozole, GeoMean, geometric mean, 504 h post-dose): 1.42 ng/mL
- concentration at 24 h (human, in vivo, sc, 4 mg, Measured serum anastrozole, individual subject): 6.08 ng/mL
- concentration at 48 h (human, in vivo, sc, 4 mg, Measured serum anastrozole, individual subject, 48 h post-dose): 6.17 ng/mL
- concentration at 72 h (human, in vivo, sc, 4 mg, Measured serum anastrozole, individual subject, 72 h post-dose): 4.94 ng/mL
- concentration at 96 h (human, in vivo, sc, 4 mg, Measured serum anastrozole, individual subject, 96 h post-dose): 4.36 ng/mL
- concentration at 168 h (human, in vivo, sc, 4 mg, Measured serum anastrozole, individual subject, 168 h post-dose): 2.84 ng/mL
- concentration at 1 h (human, in vivo, sc, 4 mg, Measured serum anastrozole, mean, 1 h post-dose): 0.38 ng/mL
- concentration at 2 h (human, in vivo, sc, 4 mg, Measured serum anastrozole, mean, 2 h post-dose): 0.7 ng/mL
- concentration at 4 h (human, in vivo, sc, 4 mg, Measured serum anastrozole, mean, 4 h post-dose): 1.37 ng/mL
- concentration at 6 h (human, in vivo, sc, 4 mg, Measured serum anastrozole, mean, 6 h post-dose): 2.58 ng/mL
- concentration at 8 h (human, in vivo, sc, 4 mg, Measured serum anastrozole, mean, 8 h post-dose): 3.44 ng/mL
- concentration at 12 h (human, in vivo, sc, 4 mg, Measured serum anastrozole, mean, 12 h post-dose): 4.06 ng/mL
- concentration at 24 h (human, in vivo, sc, 4 mg, Measured serum anastrozole, mean): 4.84 ng/mL
- concentration at 48 h (human, in vivo, sc, 4 mg, Measured serum anastrozole, mean, 48 h post-dose): 5.06 ng/mL
- concentration at 72 h (human, in vivo, sc, 4 mg, Measured serum anastrozole, mean, 72 h post-dose): 4.96 ng/mL
- concentration at 96 h (human, in vivo, sc, 4 mg, Measured serum anastrozole, mean, 96 h post-dose): 4.62 ng/mL
- concentration at 168 h (human, in vivo, sc, 4 mg, Measured serum anastrozole, mean, 168 h post-dose): 3.57 ng/mL
- concentration at 504 h (human, in vivo, sc, 4 mg, Measured serum anastrozole, mean, 504 h post-dose): 1.47 ng/mL
- concentration at 1008 h (human, in vivo, sc, 4 mg, Measured serum anastrozole, mean, 1008 h post-dose): 0.49 ng/mL
- concentration at 1344 h (human, in vivo, sc, 4 mg, Measured serum anastrozole, mean, 1344 h post-dose): 0.22 ng/mL
- concentration at 1680 h (human, in vivo, sc, 4 mg, Measured serum anastrozole, mean, 1680 h post-dose): 0.1 ng/mL
- concentration at 2016 h (human, in vivo, sc, 4 mg, Measured serum anastrozole, mean, 2016 h post-dose): 0.04 ng/mL
- concentration at 1 h (human, in vivo, sc, 4 mg, Measured serum anastrozole, median, 1 h post-dose): 0.32 ng/mL
- concentration at 2 h (human, in vivo, sc, 4 mg, Measured serum anastrozole, median, 2 h post-dose): 0.62 ng/mL
- concentration at 4 h (human, in vivo, sc, 4 mg, Measured serum anastrozole, median, 4 h post-dose): 1.12 ng/mL
- concentration at 6 h (human, in vivo, sc, 4 mg, Measured serum anastrozole, median, 6 h post-dose): 3.08 ng/mL
- concentration at 8 h (human, in vivo, sc, 4 mg, Measured serum anastrozole, median, 8 h post-dose): 3.5 ng/mL
- concentration at 12 h (human, in vivo, sc, 4 mg, Measured serum anastrozole, median, 12 h post-dose): 4.32 ng/mL
- concentration at 24 h (human, in vivo, sc, 4 mg, Measured serum anastrozole, median): 4.96 ng/mL
- concentration at 48 h (human, in vivo, sc, 4 mg, Measured serum anastrozole, median, 48 h post-dose): 5.05 ng/mL
- concentration at 72 h (human, in vivo, sc, 4 mg, Measured serum anastrozole, median, 72 h post-dose): 4.92 ng/mL
- concentration at 96 h (human, in vivo, sc, 4 mg, Measured serum anastrozole, median, 96 h post-dose): 4.6 ng/mL
- concentration at 168 h (human, in vivo, sc, 4 mg, Measured serum anastrozole, median, 168 h post-dose): 3.58 ng/mL
- concentration at 504 h (human, in vivo, sc, 4 mg, Measured serum anastrozole, median, 504 h post-dose): 1.36 ng/mL
- concentration at 1008 h (human, in vivo, sc, 4 mg, Measured serum anastrozole, median, 1008 h post-dose): 0.4 ng/mL
- concentration at 1344 h (human, in vivo, sc, 4 mg, Measured serum anastrozole, median, 1344 h post-dose): 0.16 ng/mL
- concentration at 2016 h (human, in vivo, sc, 4 mg, plasma anastrozole concentration after 12 weeks, below limit of quantitation in most participants after 12 weeks): < 0.1 ng/mL
- Measured serum anastrozole (individual subject, 1 h post-dose, 60 min): 0.215 ng/mL and 0.525 ng/mL and 0.218 ng/mL and 0.515 ng/mL and 0.394 ng/mL and 0.127 ng/mL and 0.855 ng/mL and 0.321 ng/mL and 0.243 ng/mL and 0.751 ng/mL
- Measured serum anastrozole (individual subject, 2 h post-dose, 120 min): 0.404 ng/mL and 0.615 ng/mL and 1.30 ng/mL and 0.887 ng/mL and 0.831 ng/mL and 0.306 ng/mL and 1.04 ng/mL and 0.596 ng/mL and 0.509 ng/mL and 0.180 ng/mL and 1.02 ng/mL
- Measured serum anastrozole (individual subject, 4 h post-dose, 240 min): 1.03 ng/mL and 2.97 ng/mL and 2.23 ng/mL and 0.902 ng/mL and 1.50 ng/mL and 0.582 ng/mL and 2.11 ng/mL
- Measured serum anastrozole (individual subject, 6 h post-dose, 360 min): 3.11 ng/mL and 3.07 ng/mL and 3.42 ng/mL (2×) and 1.63 ng/mL and 3.21 ng/mL and 1.62 ng/mL and 0.651 ng/mL
- Measured serum anastrozole (individual subject, 8 h post-dose, 480 min): 4.28 ng/mL and 3.41 ng/mL and 3.48 ng/mL and 4.75 ng/mL and 4.16 ng/mL and 2.18 ng/mL and 3.66 ng/mL and 3.33 ng/mL and 1.06 ng/mL and 3.99 ng/mL
- Measured serum anastrozole (individual subject, 12 h post-dose, 720 min): 5.13 ng/mL and 3.27 ng/mL and 4.42 ng/mL and 3.87 ng/mL and 3.32 ng/mL and 4.86 ng/mL and 4.18 ng/mL and 2.25 ng/mL
- Measured serum anastrozole (individual subject, 48 h post-dose, 2880 min): 3.95 ng/mL and 5.85 ng/mL and 5.58 ng/mL and 6.07 ng/mL and 4.85 ng/mL and 3.31 ng/mL and 5.28 ng/mL
- Measured serum anastrozole (individual subject, 72 h post-dose, 4320 min): 4.72 ng/mL and 5.16 ng/mL and 5.00 ng/mL and 6.29 ng/mL and 5.68 ng/mL and 4.76 ng/mL and 3.66 ng/mL and 4.85 ng/mL
- Measured serum anastrozole (individual subject, 96 h post-dose, 5760 min): 4.12 ng/mL and 4.67 ng/mL and 5.17 ng/mL
- Measured serum anastrozole (individual subject, 168 h post-dose, 10080 min): 4.35 ng/mL
- Measured serum anastrozole (individual subject, 504 h post-dose, 30240 min): 1.70 ng/mL and 1.83 ng/mL and 1.59 ng/mL
- Measured serum anastrozole (individual subject, 1008 h post-dose, 60480 min): 0.332 ng/mL and 0.665 ng/mL and 0.505 ng/mL and 0.624 ng/mL
- Measured serum anastrozole (individual subject, 1344 h post-dose, 80640 min): 0.144 ng/mL and 0.279 ng/mL
- Measured serum anastrozole (individual subject, 1680 h post-dose, 100800 min): 0.143 ng/mL
- Measured serum anastrozole, mean (mean, pre-dose): 0.00 ng/mL
- Measured serum anastrozole, median (median, pre-dose): 0.00 ng/mL
- average Cmax, plasma anastrozole (plasma): 5.30 ng/mL
- average terminal half-life, anastrozole (plasma): 336 h
- median Tmax for plasma anastrozole (plasma, post-dose): 48 h
